In ChEMBL document CHEMBL4138123, “Design, synthesis and biological evaluation of novel pyrazolochalcones as potential modulators of PI3K/Akt/mTOR pathway and inducers of apoptosis in breast cancer cells” (Eur J Med Chem, 2017):

Key:
Format in all cases: functional
[1] = test system: SNB-19; assay: Cytotoxicity against human SNB19 cells assessed as growth inhibition after 48 hrs by sulforhodamine B assay; details: SNB-19, 48 h
[2] = test system: U-251; assay: Cytotoxicity against human U251 cells assessed as growth inhibition after 48 hrs by sulforhodamine B assay; details: U-251, 48 h
[3] = test system: LOX IMVI; assay: Cytotoxicity against human LOXIMVI cells assessed as growth inhibition after 48 hrs by sulforhodamine B assay
[4] = test system: UACC-257; assay: Cytotoxicity against human UACC257 cells assessed as growth inhibition after 48 hrs by sulforhodamine B assay; details: UACC-257, 48 h
[5] = test system: OVCAR-4; assay: Cytotoxicity against human OVCAR4 cells assessed as growth inhibition after 48 hrs by sulforhodamine B assay; details: OVCAR-4, 48 h
[6] = test system: RXF 393; assay: Cytotoxicity against human RXF393 cells assessed as growth inhibition after 48 hrs by sulforhodamine B assay; details: RXF 393, 48 h
[7] = test system: DU-145; assay: Cytotoxicity against human DU145 cells assessed as growth inhibition after 48 hrs by sulforhodamine B assay; details: DU-145, 48 h
[8] = test system: Hs-578T; assay: Cytotoxicity against human Hs 578T cells assessed as growth inhibition after 48 hrs by sulforhodamine B assay
[9] = test system: BT-549; assay: Cytotoxicity against human BT549 cells assessed as growth inhibition after 48 hrs by sulforhodamine B assay; details: BT-549, 48 h
[10] = test system: ACHN; assay: Cytotoxicity against human ACHN cells assessed as cell growth at 0.01 uM after 48 hrs by sulforhodamine B assay relative to control; details: read-out: Activity
[11] = test system: OVCAR-3; assay: Cytotoxicity against human OVCAR3 cells assessed as cell growth at 0.01 uM after 48 hrs by sulforhodamine B assay relative to control; details: OVCAR-3, 48 h, read-out: Activity
[12] = test system: UACC-257; assay: Cytotoxicity against human UACC257 cells assessed as cell growth at 0.01 uM after 48 hrs by sulforhodamine B assay relative to control; details: UACC-257, 48 h, read-out: Activity
[13] = test system: NCI-H522; assay: Cytotoxicity against human NCI-H522 cells assessed as cell growth at 0.01 uM after 48 hrs by sulforhodamine B assay relative to control; details: NCI-H522, 48 h, read-out: Activity
[14] = test system: HL-60(TB); assay: Cytotoxicity against human HL-60(TB) cells assessed as cell growth at 0.1 uM after 48 hrs by sulforhodamine B assay relative to control; details: HL-60, 48 h, read-out: Activity
[15] = test system: HCT-116; assay: Cytotoxicity against human HCT116 cells assessed as cell growth at 0.1 uM after 48 hrs by sulforhodamine B assay relative to control; details: HCT-116, 48 h, read-out: Activity
[16] = test system: SW-620; assay: Cytotoxicity against human SW620 cells assessed as cell growth at 0.1 uM after 48 hrs by sulforhodamine B assay relative to control; details: SW-620, 48 h, read-out: Activity
[17] = test system: U-251; assay: Cytotoxicity against human U251 cells assessed as cell growth at 0.1 uM after 48 hrs by sulforhodamine B assay relative to control; details: U-251, 48 h, read-out: Activity
[18] = test system: Malme-3M; assay: Cytotoxicity against human MALME-3M cells assessed as cell growth at 0.1 uM after 48 hrs by sulforhodamine B assay relative to control; details: read-out: Activity
[19] = test system: UACC-257; assay: Cytotoxicity against human UACC257 cells assessed as cell growth at 0.1 uM after 48 hrs by sulforhodamine B assay relative to control; details: UACC-257, 48 h, read-out: Activity
[20] = test system: UACC-62; assay: Cytotoxicity against human UACC62 cells assessed as cell growth at 0.1 uM after 48 hrs by sulforhodamine B assay relative to control; details: UACC-62, 48 h, read-out: Activity
[21] = test system: 786-0; assay: Cytotoxicity against human 786-0 cells assessed as cell growth at 0.1 uM after 48 hrs by sulforhodamine B assay relative to control; details: 786-0, 48 h, read-out: Activity
[22] = test system: MCF7; assay: Cytotoxicity against human MCF7 cells assessed as cell growth at 0.1 uM after 48 hrs by sulforhodamine B assay relative to control; details: MCF7, 48 h, read-out: Activity
[23] = test system: Hs-578T; assay: Cytotoxicity against human Hs 578T cells assessed as cell growth at 0.1 uM after 48 hrs by sulforhodamine B assay relative to control; details: read-out: Activity
[24] = test system: SF-268; assay: Cytotoxicity against human SF268 cells assessed as cell growth at 1 uM after 48 hrs by sulforhodamine B assay relative to control; details: SF-268, 48 h, read-out: Activity
[25] = test system: RXF 393; assay: Cytotoxicity against human RXF393 cells assessed as cell growth at 1 uM after 48 hrs by sulforhodamine B assay relative to control; details: RXF 393, 48 h, read-out: Activity
[26] = test system: PC-3; assay: Cytotoxicity against human PC3 cells assessed as cell growth at 1 uM after 48 hrs by sulforhodamine B assay relative to control; details: PC-3, 48 h, read-out: Activity
[27] = test system: NCI-H322M; assay: Cytotoxicity against human NCI-H322M cells assessed as cell growth at 10 uM after 48 hrs by sulforhodamine B assay relative to control; details: read-out: Activity
[28] = test system: NCI-H522; assay: Cytotoxicity against human NCI-H522 cells assessed as cell growth at 10 uM after 48 hrs by sulforhodamine B assay relative to control; details: NCI-H522, 48 h, read-out: Activity
[29] = test system: MCF7; assay: Cytotoxicity against human MCF7 cells assessed as cell growth at 10 uM after 48 hrs by sulforhodamine B assay relative to control; details: MCF7, 48 h, read-out: Activity
[30] = test system: T47D; assay: Cytotoxicity against human T47D cells assessed as cell growth at 10 uM after 48 hrs by sulforhodamine B assay relative to control; details: read-out: Activity
[31] = test system: MDA-MB-435; assay: Cytotoxicity against human MDA-MB-435 cells assessed as cell growth at 100 uM after 48 hrs by sulforhodamine B assay relative to control; details: MDA-MB-435, 48 h, read-out: Activity
[32] = test system: UACC-62; assay: Cytotoxicity against human UACC62 cells assessed as cell growth at 100 uM after 48 hrs by sulforhodamine B assay relative to control; details: UACC-62, 48 h, read-out: Activity
[33] = test system: OVCAR-4; assay: Cytotoxicity against human OVCAR4 cells assessed as cell growth at 100 uM after 48 hrs by sulforhodamine B assay relative to control; details: OVCAR-4, 48 h, read-out: Activity
[34] = test system: PC-3; assay: Cytotoxicity against human PC3 cells assessed as cell growth at 100 uM after 48 hrs by sulforhodamine B assay relative to control; details: PC-3, 48 h, read-out: Activity
[35] = test system: BT-549; assay: Cytotoxicity against human BT549 cells assessed as cell growth at 100 uM after 48 hrs by sulforhodamine B assay relative to control; details: BT-549, 48 h, read-out: Activity
[36] = read-out: LC50 (the source's name)

## COc1ccc(-c2cc(/C=C/C(=O)c3ccc4c(c3)OCO4)[nH]n2)cc1OC
[1]
  GI50: 1.67 µM
[2]
  GI50: 1.2 µM
[3]
  GI50: 1.29 µM
[4]
  GI50: 2.16 µM
[5]
  GI50: 1.92 µM
[6]
  GI50: 1.92 µM
[7]
  GI50: 1.64 µM
[8]
  GI50: 3.76 µM
[9]
  GI50: 1.44 µM

## COc1ccc(C(=O)/C=C/c2cc(-c3ccc4c(c3)OCO4)n[nH]2)cc1OC
[1]
  TGI: 15.2 µM
[1]; [36]
  CC50: 40.8 µM
[2]
  LC50: 23.8 µM
  TGI: 5.37 µM
[3]
  LC50: 8.46 µM
  TGI: 4.08 µM
[4]
  LC50: 56.4 µM
  TGI: 22.1 µM
[5]
  LC50: > 100 µM
  TGI: 40.3 µM
[6]
  LC50 (concentration killing 50% of cells): 15.9 µM
  TGI: 5.39 µM
[7]
  GI50: 1.86 µM
  TGI: 4.27 µM
[7]; [36]
  CC50: 9.8 µM
[8]
  GI50: 2.69 µM
  LC50: > 100 µM
  TGI: 8.21 µM
[9]
  GI50: 1.97 µM
  LC50 (concentration killing 50% of cells): 8.98 µM
  TGI: 4.21 µM
[10]
  growth at 0.01 µM: 101%
[11]
  growth at 0.01 µM: 103%
[12]
  growth at 0.01 µM: 91%
[13]
  growth at 0.01 µM: 85%
[14]
  growth at 0.1 µM: 96%
[15]
  growth at 0.1 µM: 95%
[16]
  growth at 0.1 µM: 95%
[17]
  growth at 0.1 µM: 91%
[18]
  growth at 0.1 µM: 100%
[19]
  growth at 0.1 µM: 95%
[20]
  growth at 0.1 µM: 100%
[21]
  growth at 0.1 µM: 95%
[22]
  growth at 0.1 µM: 94%
[23]
  growth at 0.1 µM: 92%
[24]
  growth at 1 µM: 92%
[25]
  growth at 1 µM: 105%
[26]
  growth at 1 µM: 74%
[27]
  growth at 10 µM: -15%
[28]
  growth at 10 µM: -45%
[29]
  growth at 10 µM: 14%
[30]
  growth at 10 µM: 22%
[31]
  growth at 100 µM: -50%
[32]
  growth at 100 µM: -94%
[33]
  growth at 100 µM: -12%
[34]
  growth at 100 µM: -45%
[35]
  growth at 100 µM: -90%
